Reference: article PMC10254170, “Diastereoselective Synthesis of the Borylated D-Galactose Monosaccharide 3-Boronic-3-Deoxy-D-Galactose and Biological Evaluation in Glycosidase Inhibition and in Cancer for Boron Neutron Capture Therapy (BNCT)” (Molecules, 2023)
Like-named read-outs stand apart in the source and are kept apart here.

What was measured:
BE2-C (neuroblastoma) = test: Cancer screening (MTT growth inhibition), BE2-C; type: cell-based; conditions: 72 h; for inhibition at 25 µM / Percentage (%) cell growth inhibition: 25 µM of drug, n = 3, mean ± SEM; for inhibition at 25 µM: read-out: Percentage (%) cell growth inhibition
Procedure: All test agents were prepared as stock solutions (20 mM) in dimethyl sulfoxide (DMSO) and stored at −20 °C. Cell lines used in the study included: HT29 (colorectal carcinoma), U87 and SJ-G2 (glioblastoma), MCF-7 (breast carcinoma), A2780 (ovarian carcinoma), H460 (lung carcinoma), A431 (skin carcinoma), Du145 (prostate carcinoma), BE2-C (neuroblastoma), MiaPaCa-2 (pancreatic carcinoma), SMA560 (spontaneous murine astrocytoma), and ADDP (Cis Res Ovarian), together with one non-tumor-derived normal breast cell line (MCF10A). All cell lines were incubated in a humidified atmosphere with 5 % CO2 at 37 °C. The cancer cell lines were maintained in Dulbecco’s modified Eagle’s medium (DMEM; Sigma, Australia) supplemented with fetal bovine serum (10%), sodium pyruvate (10 mM), penicillin (100 IUmL^−1), streptomycin (100 µg mL^−1), and L-glutamine (2 mM).
Growth inhibition was determined by plating cells in duplicate in medium (100 µL) at a density of 2500–4000 cells per well in 96-well plates. On day 0 (24 h after plating), when the cells are in logarithmic growth, medium (100 µL) with or without the test agent was added to each well. After 72 h of drug exposure, growth inhibitory effects were evaluated using the (3-(4,5-dimethyltiazol-2-yl)-2,5-diphenyltetrazolium bromide) (MTT) assay and absorbance read at 540 nm. The percentage growth inhibition was calculated at a fixed concentration of 25 µM, based on the difference between the optical density values on day 0 and those at the end of drug exposure. Each data point is the mean ± the standard error of the mean (SEM) calculated from three replicates, which were performed on separate occasions and in separate cell line passages.

[1] = biological target: T1, bovine kidney α-L-fucosidase (Bos taurus, UniProt Q2KIM0); test: Glycosidase inhibition, bovine kidney α-L-fucosidase; type: biochemical
T1 construct: purchased Sigma-Aldrich Co; host or cells: bovine kidney
T1 sequence (Q2KIM0 23-468): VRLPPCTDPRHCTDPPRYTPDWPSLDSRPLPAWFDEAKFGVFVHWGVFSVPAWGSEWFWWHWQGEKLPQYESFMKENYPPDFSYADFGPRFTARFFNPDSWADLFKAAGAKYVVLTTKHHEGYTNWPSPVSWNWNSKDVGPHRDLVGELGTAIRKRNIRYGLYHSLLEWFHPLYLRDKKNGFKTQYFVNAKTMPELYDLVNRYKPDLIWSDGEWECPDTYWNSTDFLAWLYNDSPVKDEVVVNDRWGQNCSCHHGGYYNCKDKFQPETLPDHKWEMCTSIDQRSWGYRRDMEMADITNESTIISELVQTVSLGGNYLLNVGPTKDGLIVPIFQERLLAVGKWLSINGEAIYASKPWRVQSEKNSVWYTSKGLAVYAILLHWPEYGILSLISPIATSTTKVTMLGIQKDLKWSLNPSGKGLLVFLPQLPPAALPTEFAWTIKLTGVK
Excerpt: (§1) Glycosidase modulation studies need to explore selectivity as well as potency. Our drugs and controls are therefore screened against a panel of glycosidases in methanol (Table 1) to identify the glycosidase-related disease area(s), selectivity profile, and potency of biological action for each drug. The presence of organic boron covalently bonded to the drug structure also grants a reduced toxicity profile. Following the glycosidase inhibition range recommendations, an IC50 value >250 μm denotes weak inhibition, 100–249 μm denotes moderate inhibition, 10–99 μm good inhibition, 0.1–9 μm potent inhibition, and <0.1 μm very potent inhibition. […] Our boronated D-galactose 7 represents a novel lead in glycosidase inhibition.
(§2) The glycosidases screened are the following: rice α-glucosidase, yeast α-glucosidase, Bacillus α-glucosidase, rat intestinal maltase α-glucosidase, almond β-glucosidase, bovine liver β-glucosidase, coffee beans α-galactosidase, bovine liver β-galactosidase, Jack bean α-mannosidase, snail β-mannosidase, Penicillium decumbens α-L-rhamnosidase, bovine kidney α-L-fucosidase, Eschierichia coli β-glucuronidase, bovine liver β-glucuronidase, porcine kidney trehalase, Aspergillus niger amyloglucosidase, and bovine kidney N-acetyl-β-glucosaminidase. The disease areas for each glycosidase are summarized in [1].
(§3) The enzymes α-glucosidase (from yeast), β-glucosidases (from almond and bovine liver), α-galactosidase (from coffee beans), β-galactosidase (from bovine liver), α-mannosidase (from Jack bean), β-mannosidase (from snail), α-L-rhamnosidase (from Penicillium decumbens), α-L-fucosidase (from bovine kidney), trehalase (from porcine kidney), β-glucuronidases (from E. coli and bovine liver), amyloglucosidase (from A. niger), para-nitrophenyl glycosides, and various disaccharides were purchased from Sigma-Aldrich Co.
(§4) Brush border membranes were prepared from the rat small intestine according to the method of Kessler et al. and were assayed at pH 6.8 for rat intestinal maltase using maltose. For rat intestinal maltase, porcine kidney trehalase, and A. niger amyloglucosidase activities, the reaction mixture contained 25 mM maltose and the appropriate amount of enzyme, and the incubations were performed for 10–30 min at 37 °C. The reaction was stopped by heating at 100 °C for 3 min. After centrifugation (600 g; 10 min), the resulting reaction mixture was added to the Glucose CII-test Wako (Wako Pure Chemical Ind., Osaka, Japan). The absorbance at 505 nm was measured to determine the amount of the released D-glucose. Other glycosidase activities were determined using an appropriate para-nitrophenyl glycoside as substrate at the optimum pH of each enzyme. The reaction mixture contained 2 mM of the substrate and the appropriate amount of enzyme. The reaction was stopped by the addition of 400 mM Na2CO3. The released para-nitrophenol was measured spectrometrically at 400 nm. All reactions run in methanol.

porcine kidney trehalase = biological target: T2, porcine kidney trehalase (Sus scrofa, UniProt I3LIR5); test: Glycosidase inhibition, porcine kidney trehalase; type: biochemical
T2 construct: purchased Sigma-Aldrich Co; host or cells: porcine kidney
T2 sequence (I3LIR5 24-583): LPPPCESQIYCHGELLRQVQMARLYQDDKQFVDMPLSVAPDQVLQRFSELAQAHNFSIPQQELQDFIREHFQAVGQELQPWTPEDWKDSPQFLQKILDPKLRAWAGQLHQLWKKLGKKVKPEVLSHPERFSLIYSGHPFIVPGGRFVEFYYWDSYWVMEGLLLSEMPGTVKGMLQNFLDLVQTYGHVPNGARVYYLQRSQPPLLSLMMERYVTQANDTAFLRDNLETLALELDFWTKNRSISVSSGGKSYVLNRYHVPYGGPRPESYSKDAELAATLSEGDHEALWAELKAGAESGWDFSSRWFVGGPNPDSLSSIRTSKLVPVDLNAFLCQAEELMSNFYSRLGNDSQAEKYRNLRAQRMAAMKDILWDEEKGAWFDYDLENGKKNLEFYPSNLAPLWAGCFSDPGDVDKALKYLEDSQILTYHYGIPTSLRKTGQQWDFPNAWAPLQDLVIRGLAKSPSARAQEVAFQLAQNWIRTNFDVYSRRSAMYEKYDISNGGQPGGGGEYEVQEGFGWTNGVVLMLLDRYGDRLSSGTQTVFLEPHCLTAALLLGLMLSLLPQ
Excerpt: as §1, §2, §3, §4

[2] = system: Penicillium decumbens α-L-rhamnosidase; test: Glycosidase inhibition, Penicillium decumbens α-L-rhamnosidase; type: biochemical; conditions: for inhibition %: in methanol
Excerpt: as §1, §2, §3, §4

[3] = at 100 μM, in methanol, read-out: inhibition %
[4] = at 100 μM, read-out: NI: No inhibition
[5] = at 1000 μM, in methanol, read-out: inhibition %
[6] = at 1000 μM, read-out: NI: No inhibition

Molecule | inhibition at 25 µM (BE2-C (neuroblastoma); Homo sapiens, BE(2)-C) [%] | inhibition at 100 µM [1, 3] [%] | inhibition at 100 µM [1, 4] [%] | inhibition at 100 µM (porcine kidney trehalase; [3]) [%] | inhibition at 100 µM (porcine kidney trehalase; [4]) [%] | NI: No inhibition ([2]; at 100 μM) | inhibition % ([2]; at 100 μM) [%] | NI: No inhibition ([2]; at 1000 μM) | inhibition % ([2]; at 1000 μM) [%] | Percentage (%) cell growth inhibition (BE2-C (neuroblastoma)) [%] | further results
N[C@@H](Cc1ccc(B(O)O)cc1)C(=O)O [BPA, 4-borono-L-phenylalanine] | 13 ± 10 | 0 | < 50 | 0 | < 50 | NI (No inhibition (less than 50% inhibition at 100 μM)) | 0 |  |  |  | 
CC1(C)OCC(C2OC3OC(C)(C)OC3C2[B-]23OCC[NH+]2CCO3)O1 [Compound 6, 3-Deoxy-3-Boronodiethanolamine-1,2:5,6-Di-O-isopropylidene-α-D-galactofuranose] | 2 ± 5 | 6.5 | < 50 | 0 | < 50 | NI (No inhibition (less than 50% inhibition at 100 μM)) | 0.3 |  |  |  | 
OCC1OC(O)C(O)C(B(O)O)C1O [Compound 7, 3-Boronic-3-Deoxy-D-galactose] | 1 ± 2 |  |  |  |  |  |  | NI (No inhibition (less than 50% inhibition at 1000 μM)) | 0 |  | GI50 (BE2-C (neuroblastoma); Homo sapiens, BE(2)-C, dose response, read-out: GI50 = Concentration that inhibits cell growth by 50%): > 50 µM; inhibition at 1000 µM [1, 5]: 1.3%; inhibition at 1000 µM [1, 6]: < 50%; inhibition at 1000 µM (porcine kidney trehalase; [5]): 0.5%; inhibition at 1000 µM (porcine kidney trehalase; [6]): < 50%
N[C@@H](Cc1ccc(B(O)O)cc1)C(=O)O [^10B-BPA] |  |  |  |  |  | NI (No inhibition (less than 50% inhibition at 100 μM)) | 0 |  |  | 10 ± 6 | NI: No inhibition ([1]; at 100 μM): NI (No inhibition (less than 50% inhibition at 100 μM)); inhibition % ([1]; at 100 μM, in methanol): 0%; NI: No inhibition (porcine kidney trehalase; at 100 μM): NI (No inhibition (less than 50% inhibition at 100 μM)); inhibition % (porcine kidney trehalase; at 100 μM, in methanol): 0%
Borocaptate sodium [BSH] |  |  |  |  |  |  |  | NI (No inhibition (less than 50% inhibition at 1000 μM)) | 0.2 | 10 ± 6 | NI: No inhibition ([1]; at 1000 μM): NI (No inhibition (less than 50% inhibition at 1000 μM)); inhibition % ([1]; at 1000 μM, in methanol): 0%; NI: No inhibition (porcine kidney trehalase; at 1000 μM): NI (No inhibition (less than 50% inhibition at 1000 μM)); inhibition % (porcine kidney trehalase; at 1000 μM, in methanol): 4.2%
